# Test results reported in ChEMBL document CHEMBL5032490, “Neuroactive Type-A γ-Aminobutyric Acid Receptor Allosteric Modulator Steroids from the Hypobranchial Gland of Marine Mollusk, Conus geographus” (J Med Chem, 2021).
# Calls of active or inactive are those of the source. The calls are words filed in the database; no cut-off is given here.
# Assays:
# [1] = Induction of cytosolic calcium ion concentration in mouse microglia cells at 10 uM measured after 1 hr by Fura2AM dye based fluorescence microscopic analysis; type: functional
# [2] = Reduction of ATP and Kcl-induced increase in cytosolic Ca2+ ion concentration mouse peptidergic nociceptive DRG neuron assessed as neuron population at 10 uM measured after 1 hr by Fura2AM dye based fluorescence microscopic analysis; type: functional; set-up: scale not given: the % may be the effect or the level left
# [3] = Induction of cytosolic calcium ion concentration in mouse peptidergic nociceptive DRG neuron at 10 uM measured after 1 hr by Fura2AM dye based fluorescence microscopic analysis; type: functional
# [4] = Induction of ATP and Kcl-induced increase in cytosolic Ca2+ ion concentration mouse non-peptidergic nociceptive DRG neuron assessed as neuron population at 10 uM measured after 1 hr by Fura2AM dye based fluorescence microscopic analysis; type: functional
# [5] = target: T1, GABA-A receptor; alpha-1/beta-3/gamma-2 (Homo sapiens, UniProt P14867+P18507+P28472); assay: Negative allosteric modulation activity at human GABAA alpha1beta3gamma2 stably expressed in HEK cells by whole cell patch clamp method; type: cell-based
# T1 sequence (P14867 whole entry): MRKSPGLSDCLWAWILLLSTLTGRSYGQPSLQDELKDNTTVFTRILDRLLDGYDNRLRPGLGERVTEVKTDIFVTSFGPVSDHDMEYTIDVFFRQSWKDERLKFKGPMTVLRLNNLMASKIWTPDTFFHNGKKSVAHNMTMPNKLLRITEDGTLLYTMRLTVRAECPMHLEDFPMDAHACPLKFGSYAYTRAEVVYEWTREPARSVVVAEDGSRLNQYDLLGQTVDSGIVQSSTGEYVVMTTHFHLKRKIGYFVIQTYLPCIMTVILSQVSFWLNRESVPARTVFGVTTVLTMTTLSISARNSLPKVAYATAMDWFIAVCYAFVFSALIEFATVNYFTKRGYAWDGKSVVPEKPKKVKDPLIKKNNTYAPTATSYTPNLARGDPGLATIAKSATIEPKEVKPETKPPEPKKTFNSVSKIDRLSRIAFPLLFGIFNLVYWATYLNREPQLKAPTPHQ
# T1 sequence (P18507 whole entry): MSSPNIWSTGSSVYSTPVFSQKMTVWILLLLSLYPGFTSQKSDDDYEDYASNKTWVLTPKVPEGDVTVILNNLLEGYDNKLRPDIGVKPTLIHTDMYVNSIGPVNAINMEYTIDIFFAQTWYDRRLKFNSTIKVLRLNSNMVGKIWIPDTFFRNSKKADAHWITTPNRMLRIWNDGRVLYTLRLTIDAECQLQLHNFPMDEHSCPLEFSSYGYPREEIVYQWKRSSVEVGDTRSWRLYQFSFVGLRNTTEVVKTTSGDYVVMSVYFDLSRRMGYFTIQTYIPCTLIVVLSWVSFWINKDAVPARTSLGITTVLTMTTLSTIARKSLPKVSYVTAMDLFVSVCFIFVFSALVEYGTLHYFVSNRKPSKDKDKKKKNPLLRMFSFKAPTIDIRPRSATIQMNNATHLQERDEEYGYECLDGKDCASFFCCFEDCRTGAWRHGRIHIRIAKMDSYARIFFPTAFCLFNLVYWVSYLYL
# T1 sequence (P28472 whole entry): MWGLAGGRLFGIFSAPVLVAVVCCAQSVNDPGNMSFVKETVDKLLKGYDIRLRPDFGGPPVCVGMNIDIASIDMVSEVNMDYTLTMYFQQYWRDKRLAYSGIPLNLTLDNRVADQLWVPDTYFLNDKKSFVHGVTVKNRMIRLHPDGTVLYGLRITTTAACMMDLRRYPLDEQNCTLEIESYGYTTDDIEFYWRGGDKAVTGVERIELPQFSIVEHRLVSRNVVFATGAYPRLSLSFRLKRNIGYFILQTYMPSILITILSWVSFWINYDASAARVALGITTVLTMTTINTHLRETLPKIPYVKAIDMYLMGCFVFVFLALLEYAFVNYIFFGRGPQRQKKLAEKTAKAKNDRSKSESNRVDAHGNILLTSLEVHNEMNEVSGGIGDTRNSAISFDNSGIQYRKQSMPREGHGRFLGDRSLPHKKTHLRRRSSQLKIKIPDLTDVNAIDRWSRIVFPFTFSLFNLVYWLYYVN
# [6] = target: T2, GABA-A receptor; alpha-2/beta-3/gamma-2 (Homo sapiens, UniProt P18507+P28472+P47869); assay: Negative allosteric modulation activity at human GABAA alpha2beta3gamma2 stably expressed in HEK cells by whole cell patch clamp method; type: cell-based
# T2 sequence (P18507 whole entry): T1 sequence (P18507 whole entry)
# T2 sequence (P28472 whole entry): T1 sequence (P28472 whole entry)
# T2 sequence (P47869 whole entry): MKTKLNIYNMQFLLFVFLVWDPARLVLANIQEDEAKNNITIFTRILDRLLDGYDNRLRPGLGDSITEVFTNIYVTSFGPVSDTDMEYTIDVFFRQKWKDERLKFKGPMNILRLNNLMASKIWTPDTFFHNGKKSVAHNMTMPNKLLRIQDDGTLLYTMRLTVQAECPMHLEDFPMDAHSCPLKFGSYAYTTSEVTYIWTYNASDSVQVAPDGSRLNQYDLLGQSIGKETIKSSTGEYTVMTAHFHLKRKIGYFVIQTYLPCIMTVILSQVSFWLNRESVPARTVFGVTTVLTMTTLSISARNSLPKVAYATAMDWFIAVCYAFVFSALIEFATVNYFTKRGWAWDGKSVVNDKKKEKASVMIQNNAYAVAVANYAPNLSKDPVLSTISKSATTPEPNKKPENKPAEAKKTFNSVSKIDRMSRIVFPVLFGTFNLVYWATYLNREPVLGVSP
# [7] = target: T3, GABA-A receptor; alpha-3/beta-3/gamma-2 (Homo sapiens, UniProt P18507+P28472+P34903); assay: Negative allosteric modulation activity at human GABAA alpha3beta3gamma2 stably expressed in HEK cells by whole cell patch clamp method; type: cell-based
# T3 sequence (P18507 whole entry): T1 sequence (P18507 whole entry)
# T3 sequence (P28472 whole entry): T1 sequence (P28472 whole entry)
# T3 sequence (P34903 whole entry): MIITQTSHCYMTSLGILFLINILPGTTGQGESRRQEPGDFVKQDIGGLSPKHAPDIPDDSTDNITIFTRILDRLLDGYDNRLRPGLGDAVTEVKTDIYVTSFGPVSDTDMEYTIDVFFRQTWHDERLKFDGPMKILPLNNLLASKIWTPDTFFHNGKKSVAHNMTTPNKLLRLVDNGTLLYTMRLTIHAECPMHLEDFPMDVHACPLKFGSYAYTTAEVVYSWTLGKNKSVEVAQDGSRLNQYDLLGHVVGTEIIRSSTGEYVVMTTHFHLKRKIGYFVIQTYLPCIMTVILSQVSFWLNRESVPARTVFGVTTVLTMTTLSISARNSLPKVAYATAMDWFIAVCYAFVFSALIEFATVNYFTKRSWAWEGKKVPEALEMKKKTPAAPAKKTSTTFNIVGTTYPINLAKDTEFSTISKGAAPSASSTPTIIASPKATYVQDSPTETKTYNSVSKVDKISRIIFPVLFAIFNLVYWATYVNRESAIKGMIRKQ
# Neuron = assay: Negative allosteric modulation of human GABA receptor expressed in mouse DRG neurons assessed as inhibition of 500 nM GABA-induced response at 0.5 uM; type: tissue-based; conditions: filed as negative allosteric modulator
# Mus musculus [8] = assay: Antinociceptive activity in mouse assessed as total number of responses at 2 to 50 mg/kg, ip by Von Frey test; type: functional, organism-based; conditions: dose 2-50 mg/kg
# Mus musculus [9] = assay: Anxiolytic activity in restraint stress induced anxiety mouse model assessed as total number of responses at 2 to 50 mg/kg, ip administered measured after 5 mins by open field test; type: functional, organism-based; conditions: dose 2-50 mg/kg
smiles,measurement,setting,value
CC(C)CCC[C@@H](C)[C@H]1CC[C@H]2[C@@H]3C(=O)C=C4C=CCC[C@]4(C)[C@H]3CC[C@]12C,Activity,[1],7%
same,Activity,[2],4%
same,Activity,[3],33%
same,Activity,[4],39%
same,IC50,[5],21 µM
same,IC50,[6],15.7 µM
same,IC50,[7],5.5 µM
same,Activity,Neuron,Active
same,Activity,Mus musculus [8],Active
same,Activity,Mus musculus [9],inactive
